Test results reported in patent EP0043274A2, “Antithrombotic treatment” (priority 1980, dated 1982).
Read-outs that look alike come from different tables or passages of the source.

Columns and labels:
[1] = test system: human platelet rich plasma; experiment: Platelet aggregation in platelet rich plasma, platelet aggregometer (technique of Born); assay type: cell-based; conditions: platelet rich plasma from men
From the text: A present preference for purposes of evaluating an - antithrombotic effect is to withdraw samples of blood from a patient undergoing treatment and to measure platelet aggregation. One method is described in the paper by Born in Nature 194, pp. 927-929 (1962), which may be used for this purpose if desired.
That sodium bisulfite is an antiplatelet aggregatory agent is shown by using a platelet aggregometer based on the technique of Born (above cited).
(§1) Platelet rich plasma from rabbit and men was prepared by the centrugation technique referenced in Example 13. Using ADP (adosine diphosphate) as a stimulus rapid aggregation of platelets occurred. […] This procedure is described in the article by Born in Nature, Vol. 194, pgs. 927-929 (1962).
as §1, with “rabbits” for “rabbit”, “diphosphate) arachidonic acid” for “diphosphate)”, “stimulus,” for “stimulus”, “Born,” for “Born in”

[2] = test system: rabbit platelet rich plasma; experiment: as above; assay type: cell-based; conditions: platelet rich plasma from rabbit
Experimental: as §1
as §1, with “rabbits” for “rabbit”, “diphosphate) arachidonic acid” for “diphosphate)”, “stimulus,” for “stimulus”, “Born,” for “Born in”

human plasma [3] = assay type: biochemical
human plasma [4] = assay type: biochemical; remark: listed apart in the source
[5] = test system: thrombus formation in the jugular vein; experiment: I 125 fibrinogen technique, damaged jugular vein (venous thrombosis), continuous infusion; assay type: in vivo, rabbits
Experimental: The anti venous thrombotic effect of sodium bisulfite is evaluated in rabbits by using I ^125 fibrinogen technique as described in an article in "Archives of Surgery" Vol. 104, pg. 152 (1972).
The rabbit was continuously infused with aqueous sodium bisulfite solution at the rate of […]. (5.154 gram per hour) (animal body weight 2.3 kg) for a time of five hours. After 5 hours, the animal was sacrificed and the radioactive fibrinogen accumulated in the damaged jugular vein was determined. The radioactivity on the contra-lateral (undamaged) jugular vein was also determined to serve as a control. Concurrently, another rabbit had experienced the same procedure but received only a standard sodium chloride solution as a control. The rabbit from the normal saline solution has seven times as much radioactivity as his counterpart infused with sodium bisulfite.
Two jugular veins on a normal, healthy rabbit are exposed and one of the veins is systematically damaged by clamping in two longitudinally spaced places. The rabbit is then continuously infused with aqueous sodium formaldehyde bisulfite at the rate of […] (5.154 gram per hour) (animal body weight 2.3 kg). The rabbit is then injected with fibrinogen labeled with I^125. After 5 hours, the damaged jugular vein is evaluated for radioacive count with a Geiger counter.
This iodine 125 evaluation technique is described by Kakkar in Archieves of Surgery, Vol. 104, pg. 152 (1972) and by Kelton, J.G. et al, Journal of Clinical Investigation, Vol. 62, pgs. 892-895, (1978). […] Other rabbits, similarly evaluated, died, apparently because of overdose by the infustion technique.

platelet rich plasma = experiment: Platelet aggregation in platelet rich plasma from injected rabbit (ex vivo); conditions: injected with about 72 mg/kg of body weight; blood sample after 5 hours
Experimental: (§2) A rabbit is injected with about +72 mg/kg of body weight of triethyl amine bisulfite. After a period of 5 hours, a blood sample was withdrawn and centrifuged at 1000 r.p.m. (220 g) for 10 minutes to give a platelet rich plasma. […] It is concluded that triethyl amine bisulfite is an agent which inhibits thrombotic condition formation in vivo.
as §2, with “72” for “+72”, “sodium formaldehyde” for “triethyl amine”, “minuts” for “minutes”, “thrombus” for “thrombotic condition”

thrombus = experiment: Antithrombotic effect in rabbit (Kelton et al); assay type: in vivo; conditions: 50 mg/kg
From the text: Evaluation of the antithrombotic effect of sodium formaldehyde bisulfite was caried out on a rabbit as described in Kelton et al: "Thrombogenic Effect of High Dose Aspirin in Rabbits", Journal of Clinical Investigation", Volume 62, pages 892-895, 1978.

blood = experiment: PT and PTT of blood after oral gavage; assay type: in vivo, rabbit; conditions: orally by gavage about 50 mg/kg in two spaced doses (solution of Example X); after 1 day
[6] = continuous infusion for five hours

O=S(=O)(O)CO [Sodium formaldehyde bisulfite]
platelet aggregation, ADP (adosine diphosphate) as a stimulus [1]: strong inhibition of platelet aggregation
platelet aggregation, ADP (adosine diphosphate) as a stimulus [2]: strong inhibition of platelet aggregation
PT (human plasma [3]): 19.68 s
PT (human plasma [3]; 0.01 Molar, control 12.5): 24.4
PT (human plasma [3]; coded agents 0.5mg/ml, […], control 12.92): 19.50 s
PT REPLICATIONS I (human plasma [3]; control 13.1 (14.1 for Sodium formaldehyde Bisulfite)): 20.5
PT (effect in words) (human plasma [3]; in vitro, 0.5 mg/ml): effective
PTT (human plasma [4]; 0.5 mg/ml, two different days, control 42.6 / 42.10): 56.30 s
PTT (human plasma [4]; 0.01 Molar, control 33.4): 54.6
PTT (human plasma [4]; coded agents 0.5mg/ml, […], control 43.38): 58.60 s
PTT REPLICATIONS I (human plasma [4]; control 38.2 (50.5 for Sodium formaldehyde Bisulfite)): 63.5
PTT (effect in words) (human plasma [4]; in vitro, 0.5 mg/ml): effective
mortality of infused rabbits ([5]; continuous infusion): died
radioactivity (I 125 fibrinogen) in damaged jugular vein of saline control rabbit relative to treated rabbit [5, 6]: more radioactivity
thrombus formation in the jugular vein (conclusion in words) [5, 6]: definite positive effect of decreasing thrombus formation
aggregation of platelets in comparison with an untreated rabbit (platelet rich plasma): markedly decreased
disappearance of the thrombus compared with a control animal (thrombus): the thrombus disappeared more rapidly
PT and PTT values of the animal's blood compared with untreated control rabbit (blood): lengthened
